Among the data in PubChem BioAssay (NCI) are TGI and GI50 values, retold here.

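These data come from cells grown in 96-well plates and exposed to compound for 48 hours at five concentrations. GI50 is the concentration that inhibits growth by half. TGI: total growth inhibition.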

Among the test systems are MDA-MB-435; NCI-H23 lung; RPMI-8226 leukemia; SW-620 colon; OVCAR-8 ovarian; SF-268 CNS; 786-0 renal; TK-10 renal; PC-3 prostate; RXF 393 renal.
Assay in all cases: NCI-60 cell line screen, 48 h

Consider `CN(C)CCNc1ccc2ncnc3c2c1C(=O)c1ccccc1-3`, for which the TGI with MDA-MB-435 is 6.21 µM; in the assay with NCI-H23 lung, 3.4 µM; with RPMI-8226 leukemia it was 3.83 µM; in the assay on SW-620 colon, 3.81 µM; in the assay on OVCAR-8 ovarian, 10.5 µM; with SF-268 CNS it was 4.48 µM. Further, the TGI with 786-0 renal worked out at 5.47 µM; with TK-10 renal, 3.92 µM; in the assay on PC-3 prostate, 7.21 µM; in the assay on RXF 393 renal it was 2.32 µM.
For `Cc1nc(Cl)c2sc(=S)n(-c3ccc(F)cc3)c2n1`, the TGI was 8.68 µM in the assay on MDA-MB-435; 2.52 µM with NCI-H23 lung; above 100 µM in the assay on RPMI-8226 leukemia; 14.1 µM in the assay with SW-620 colon; 33.8 µM in the assay on OVCAR-8 ovarian; 5.29 µM with SF-268 CNS. The TGI with 786-0 renal came to 11.9 µM; with TK-10 renal, 12.8 µM; in the assay with PC-3 prostate, 36.8 µM; in the assay with RXF 393 renal it was 21.1 µM.
On to `CO[C@H]1[C@@H](O)[C@@H](C)O[C@@H](O[C@H]2CC[C@@]3(C)[C@H](CC[C@@H]4[C@@H]3CC[C@]3(C)[C@@H](C5=CC(=O)OC5)CC[C@]43O)C2)[C@@H]1O`, for which the TGI worked out at 0.0693 µM in the assay with MDA-MB-435; 0.00675 µM with NCI-H23 lung; 25 µM with RPMI-8226 leukemia; 2.51 µM in the assay with SW-620 colon; 0.0444 µM in the assay with OVCAR-8 ovarian; 0.0366 µM in the assay on SF-268 CNS. For the same molecule, the TGI in the assay on 786-0 renal was determined as 0.01 µM; in the assay on TK-10 renal it was 0.0201 µM; with PC-3 prostate, 0.0171 µM; in the assay on RXF 393 renal, 0.00617 µM. Moreover, the GI50 with NCI-H23 lung is below 0.0025 µM; with RPMI-8226 leukemia, 0.00781 µM.
On to `CCC(CS(=O)(=O)O)[N+](=O)[O-]` (stereo unspecified), for which the TGI in the assay with MDA-MB-435, with NCI-H23 lung, in the assay on RPMI-8226 leukemia, in the assay with SW-620 colon, with OVCAR-8 ovarian and in the assay on SF-268 CNS was above 100 µM in each case. Besides, the TGI with 786-0 renal, in the assay on TK-10 renal, in the assay with PC-3 prostate and in the assay on RXF 393 renal was above 100 µM each time.
`Nc1ccc2c(c1)C1=NNC(=O)CC1C2` (stereo unspecified): the TGI in the assay with NCI-H23 lung, in the assay with RPMI-8226 leukemia, in the assay with SW-620 colon, with OVCAR-8 ovarian, in the assay on SF-268 CNS and with RXF 393 renal was above 100 µM throughout.
Turning to `COc1ccc(-c2cc(-c3ccccc3)n(C3OCC(OC(C)=O)C(OC(C)=O)C3OC(C)=O)c(=S)c2C#N)cc1` (stereo unspecified), the TGI in the assay on MDA-MB-435, with NCI-H23 lung, in the assay with RPMI-8226 leukemia, in the assay with SW-620 colon, in the assay on OVCAR-8 ovarian and in the assay on SF-268 CNS was above 100 µM throughout. Moreover, the TGI in the assay on TK-10 renal, in the assay on PC-3 prostate and in the assay on RXF 393 renal was above 100 µM in each case.
For `CC1SC(c2ccccc2)N(Nc2c3ccccc3nc3ccccc23)C1=O` (stereo unspecified), the TGI with NCI-H23 lung, with RPMI-8226 leukemia, in the assay on SW-620 colon, in the assay with OVCAR-8 ovarian and in the assay with SF-268 CNS was above 100 µM throughout.
For the molecule `[N-]=[N+]=Nc1ccc(NCCCCCC(=O)ON2C(=O)CCC2=O)c([N+](=O)[O-])c1`, the TGI with MDA-MB-435, in the assay on NCI-H23 lung, in the assay on SW-620 colon, with OVCAR-8 ovarian, in the assay with SF-268 CNS and in the assay with 786-0 renal was above 100 µM in each case. In addition, the TGI in the assay on TK-10 renal, in the assay with PC-3 prostate and in the assay with RXF 393 renal was above 100 µM each time.
Regarding `COc1cc(-c2n/c(=C\c3c(O)[nH]c4ccc(Cl)cc34)cc3c2=Nc2ccccc2-3)cc(OC)c1OC`, the GI50 in the assay on MDA-MB-435 was 2.08 µM; with NCI-H23 lung, 1.05 µM; with RPMI-8226 leukemia, 2.68 µM; with SW-620 colon, 0.366 µM; with SF-268 CNS it was 1.6 µM; in the assay on TK-10 renal, 1.5 µM. Further, the GI50 in the assay on PC-3 prostate is 1.82 µM; in the assay on RXF 393 renal, 1.63 µM. For the same molecule, the TGI was determined as 5.15 µM with MDA-MB-435; 3.85 µM in the assay on NCI-H23 lung; 19.7 µM in the assay with RPMI-8226 leukemia; 1.6 µM in the assay on SW-620 colon; 3.95 µM with SF-268 CNS; 3.2 µM with TK-10 renal. The results for the TGI in the assay with PC-3 prostate and with RXF 393 renal were 5.92 µM and 3.33 µM, respectively.
For `NCC[Se][Se]CCN`, the TGI was 24.9 µM in the assay on MDA-MB-435; 30.6 µM in the assay on NCI-H23 lung; above 100 µM with RPMI-8226 leukemia; 48.9 µM with SW-620 colon; 38.1 µM in the assay with OVCAR-8 ovarian; 32.5 µM in the assay with SF-268 CNS. The TGI with 786-0 renal turned out to be 29.4 µM; in the assay with TK-10 renal it was 30.7 µM; in the assay with PC-3 prostate, 27.5 µM; with RXF 393 renal it was 32.5 µM.
Take `COc1ccc(OC)c([N+](=O)[O-])c1-c1nc2sccn2c1/C=N/N=C(N)N`: the TGI with MDA-MB-435, in the assay on NCI-H23 lung, in the assay on RPMI-8226 leukemia, in the assay with SW-620 colon, in the assay with OVCAR-8 ovarian and in the assay on SF-268 CNS was above 100 µM in each case. Further, the TGI with 786-0 renal, in the assay with TK-10 renal, in the assay on PC-3 prostate and with RXF 393 renal was above 100 µM throughout.
As to `CC(CN(C)C)C(=O)c1ccccc1C(=O)O` (stereo unspecified), the TGI is 50.9 µM with MDA-MB-435; 89.1 µM with NCI-H23 lung; 78 µM with RPMI-8226 leukemia; above 100 µM in the assay on SW-620 colon; 98.8 µM in the assay on OVCAR-8 ovarian; above 100 µM in the assay on SF-268 CNS. Also, the TGI in the assay on 786-0 renal is above 100 µM; in the assay on TK-10 renal it was 47.7 µM; in the assay with PC-3 prostate, 94.5 µM; in the assay on RXF 393 renal it was above 100 µM.
As to `O=C(CCCn1c(=O)c2sc3ccccc3c2n2nnc(-c3ccccc3)c12)NCCc1cnc[nH]1`, the GI50 in the assay on MDA-MB-435 is 1.49 µM; with NCI-H23 lung, 2.92 µM; with OVCAR-8 ovarian, 0.32 µM; with SF-268 CNS it was 1.77 µM; in the assay with RXF 393 renal, 2.52 µM. The TGI in the assay on MDA-MB-435 was determined as 3.06 µM; in the assay on NCI-H23 lung it was 11.6 µM; in the assay on OVCAR-8 ovarian, 2.79 µM; with SF-268 CNS it was 3.72 µM; with RXF 393 renal it was 5.02 µM.
As for `O=[N+]([O-])c1ccc(N=Nc2c(O)ccc3cc(S(=O)(=O)O)ccc23)cc1`, the TGI in the assay on MDA-MB-435, in the assay with NCI-H23 lung, with RPMI-8226 leukemia, in the assay with SW-620 colon, in the assay on OVCAR-8 ovarian and in the assay on SF-268 CNS was above 100 µM throughout. Moreover, the TGI in the assay with 786-0 renal, in the assay with TK-10 renal, in the assay on PC-3 prostate and in the assay with RXF 393 renal was above 100 µM in each case.
Take `CNC(C)Cc1ccccc1O` (stereo unspecified): the TGI with NCI-H23 lung, with RPMI-8226 leukemia, with SW-620 colon, with OVCAR-8 ovarian, with SF-268 CNS and in the assay with 786-0 renal was above 100 µM throughout. The TGI in the assay on TK-10 renal and in the assay on RXF 393 renal was above 100 µM in each case.
Take `CCn1nc(C)c2c1C(=O)NC(C)C(=O)N2` (stereo unspecified): the TGI in the assay with MDA-MB-435, with NCI-H23 lung, in the assay on SW-620 colon, in the assay on OVCAR-8 ovarian, in the assay on SF-268 CNS and with TK-10 renal was above 100 µM in each case. For the same molecule, the TGI in the assay on PC-3 prostate and in the assay on RXF 393 renal was above 100 µM each time.
Regarding `CC(C)(N)CO[C@H]1C[C@H]2CC[C@@]1(C)C2(C)C`, the TGI with MDA-MB-435 was 30.5 µM; with NCI-H23 lung, 66 µM; in the assay with RPMI-8226 leukemia, 40.7 µM; in the assay on SW-620 colon, 54.4 µM; with OVCAR-8 ovarian, 53.1 µM; with SF-268 CNS, above 100 µM. Also, the TGI in the assay with 786-0 renal was 30.2 µM; with TK-10 renal, 40 µM; in the assay with PC-3 prostate, above 100 µM; in the assay on RXF 393 renal, 28.2 µM.
`COc1cc2cc[n+](C)c(Cc3ccccc3)c2cc1OC`: the TGI in the assay on NCI-H23 lung, with RPMI-8226 leukemia, in the assay with SW-620 colon, in the assay with OVCAR-8 ovarian, with SF-268 CNS and in the assay on 786-0 renal was above 100 µM throughout. Further, the TGI with TK-10 renal and in the assay with RXF 393 renal was above 100 µM in each case.
Consider `C=C(C)[C@@H]1CC[C@]2(C)CC[C@]3(C)[C@H](CC[C@@H]4[C@@]5(C)CC[C@H](OC(=O)c6ccccc6)C(C)(C)[C@@H]5CC[C@]43C)[C@@H]12`, for which the TGI with MDA-MB-435, in the assay on NCI-H23 lung, with RPMI-8226 leukemia, with SW-620 colon, in the assay on OVCAR-8 ovarian and in the assay with SF-268 CNS was above 100 µM each time. For the same molecule, the TGI with 786-0 renal, in the assay with TK-10 renal and with PC-3 prostate was above 100 µM throughout.
Turning to `O=S1(=O)NNC(=NCc2ccc(Cl)c(Cl)c2)c2ccccc21`, the TGI in the assay with RPMI-8226 leukemia was 61 µM; in the assay on SW-620 colon, above 100 µM; in the assay on OVCAR-8 ovarian it was above 100 µM; with SF-268 CNS it was above 100 µM; with 786-0 renal, above 100 µM; with RXF 393 renal, above 100 µM.
